The assay in a line: Binding affinity for delta opioid receptor was determined using radioligand [3H]DPDPE in Guinea pig brain membranes.

By Ki is commonly meant the dissociation constant of the complex between target and ligand, obtained from inhibition or displacement.

`CCCCC(=N)NCc1ccc2[nH]c3c(c2c1)C[C@@]1(O)C2Cc4ccc(O)c5c4[C@@]1(CCN2CC1CC1)C3O5` (stereo partly drawn) [22-cyclopropylmethyl-7-(1-iminopentylaminomethyl)-(2S)-14-oxa-11,22-diazaheptacyclo[13.9.1.01,13.02,21.04,12.05,10.019,25]pentacosa-4(12),5(10),6,8,15,17,19(25)-heptaene-2,16-diol] returned a Ki of 5.5 nM.

Values taken from BindingDB's records for doi:10.1021/jm00053a025 (University of Minnesota, 1993).
